The source of these data is patent publication US11534457B2, “Use of dextran sulfate” (priority 2017, dated 2022).

For this test, the system named is KF3CT system [keratinocytes and HDFn+(IL-1β, TNFα, IFNγ and TGFβ)]. Put plainly: BioMAP KF3CT system. Type of test: cell-based, Human. From the text:
In this study LMW-DS was characterized by profiling in the BioMAP® Diversity PLUS panel. The BioMAP® panel consists of human primary cell-based systems designed to model different aspects of the human body in an in vitro format. The 12 systems in the BioMAP® Diversity PLUS panel (Table 32) allow test agent characterization in an unbiased way across a broad set of systems modeling various human disease states. The BioMA®P systems are constructed with one or more primary cell types from healthy human donors, with stimuli, such as cytokines or growth factors, added to capture relevant signaling networks that naturally occur in human tissue or pathological conditions. […]
Systems are derived from either single cell types or co-culture systems. […] Test agents prepared in either DMSO (small molecules; final concentration 0.1%) or PBS (biologics) are added at the indicated concentrations 1-hr before stimulation, and remain in culture for 24-hrs or as otherwise indicated (48-hrs, MyoF system; 72-hrs, BT system (soluble readouts); 168-hrs, BT system (secreted IgG)). […] Soluble factors from supernatants are quantified using either HTRF® detection, bead-based multiplex immunoassay or capture ELISA. Overt adverse effects of test agents on cell proliferation and viability (cytotoxicity) are detected by sulforhodamine B (SRB) staining, for adherent cells, and alamarBlue® reduction for cells in suspension. […]

With “low molecular weight dextran sulfate [LMW-DS]”, the Decreased biomarker activity entry was “MCP-1” and the Increased biomarker activity entry is on record as “IL-8”.
